Laboratory results from ChEMBL document CHEMBL2412971, “Selective orexin receptor antagonists” (Bioorg Med Chem Lett, 2013).
Blank lines part the entries; values can stand above or below the compound they belong to.

Experiments:
[1] = target: T1, Orexin/Hypocretin receptor type 1 (Homo sapiens, UniProt O43613); experiment: (§1) Binding affinity to orexin receptor 1 (unknown origin)
T1 sequence (O43613 whole entry): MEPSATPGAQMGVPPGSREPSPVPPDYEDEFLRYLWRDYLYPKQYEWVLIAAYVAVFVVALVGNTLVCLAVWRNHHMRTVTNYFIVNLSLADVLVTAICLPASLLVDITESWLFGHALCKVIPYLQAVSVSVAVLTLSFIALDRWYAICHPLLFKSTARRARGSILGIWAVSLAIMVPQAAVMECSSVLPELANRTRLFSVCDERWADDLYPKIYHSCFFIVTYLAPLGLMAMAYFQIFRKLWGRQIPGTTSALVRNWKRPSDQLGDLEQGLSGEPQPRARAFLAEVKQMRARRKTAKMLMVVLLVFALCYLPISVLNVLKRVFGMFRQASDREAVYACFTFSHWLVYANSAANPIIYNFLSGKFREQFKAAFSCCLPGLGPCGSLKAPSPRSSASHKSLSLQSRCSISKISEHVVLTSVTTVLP

[2] = target: T2, Orexin receptor type 2 (Homo sapiens, UniProt O43614); experiment: (§2) Binding affinity to orexin receptor 2 (unknown origin)
T2 sequence (O43614 whole entry): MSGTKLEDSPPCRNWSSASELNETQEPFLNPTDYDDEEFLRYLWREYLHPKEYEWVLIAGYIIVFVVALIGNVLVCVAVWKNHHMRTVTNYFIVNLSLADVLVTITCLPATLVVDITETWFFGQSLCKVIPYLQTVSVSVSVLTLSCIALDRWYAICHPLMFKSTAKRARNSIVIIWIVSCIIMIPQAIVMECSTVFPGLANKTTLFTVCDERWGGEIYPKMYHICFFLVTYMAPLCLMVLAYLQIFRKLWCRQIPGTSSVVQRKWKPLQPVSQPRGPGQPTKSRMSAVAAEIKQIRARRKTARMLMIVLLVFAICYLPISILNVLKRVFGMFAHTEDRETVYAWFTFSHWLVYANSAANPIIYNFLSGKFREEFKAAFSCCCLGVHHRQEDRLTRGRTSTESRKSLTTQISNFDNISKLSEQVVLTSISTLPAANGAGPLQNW

[3] = target: T3, Orexin/Hypocretin receptor type 1 (Homo sapiens) (UniProt O43613); experiment: as §1
T3 sequence (whole entry): T1 sequence (O43613 whole entry)

[4] = target: T4, Orexin receptor type 2 (Homo sapiens) (UniProt O43614); experiment: as §2
T4 sequence (whole entry): T2 sequence (O43614 whole entry)

[5] = target: T2, Orexin receptor type 2; experiment: Antagonist activity at human orexin receptor 2 expressed in CHO cells assessed as inhibition of orexin-A-induced calcium flux by FLIPR assay; assay type: functional, cell-based
[6] = target: T1, Orexin/Hypocretin receptor type 1; experiment: Antagonist activity at human orexin receptor 1 expressed in CHO cells assessed as inhibition of orexin-A-induced calcium flux by FLIPR assay; assay type: functional, cell-based
[7] = target: T5, 5-hydroxytryptamine receptor 2C (Homo sapiens, UniProt P28335); experiment: Binding affinity to 5HT2C receptor (unknown origin)
T5 sequence (P28335 whole entry): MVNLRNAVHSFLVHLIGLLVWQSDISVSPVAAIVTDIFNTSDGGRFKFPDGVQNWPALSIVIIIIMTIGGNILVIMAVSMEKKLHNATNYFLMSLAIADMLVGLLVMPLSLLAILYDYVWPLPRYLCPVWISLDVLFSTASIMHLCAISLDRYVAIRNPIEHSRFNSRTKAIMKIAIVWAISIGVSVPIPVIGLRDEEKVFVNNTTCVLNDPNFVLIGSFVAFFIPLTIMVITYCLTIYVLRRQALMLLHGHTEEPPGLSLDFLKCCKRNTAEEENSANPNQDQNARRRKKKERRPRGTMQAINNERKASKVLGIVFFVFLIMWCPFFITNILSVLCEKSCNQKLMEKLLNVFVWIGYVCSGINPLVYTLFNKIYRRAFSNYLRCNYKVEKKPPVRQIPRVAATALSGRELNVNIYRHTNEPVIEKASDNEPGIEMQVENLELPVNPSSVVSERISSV

[8] = target: Adenosine receptor A2a (Homo sapiens, UniProt P29274); experiment: Binding affinity to adenosine A2A receptor (unknown origin)
[9] = target: Kappa-type opioid receptor (Homo sapiens, UniProt P41145); experiment: Binding affinity to kappa opioid receptor (unknown origin)
[10] = target: 5-hydroxytryptamine receptor 2B (Homo sapiens, UniProt P41595); experiment: Binding affinity to 5HT2B receptor (unknown origin)
[11] = target: D(1A) dopamine receptor (Homo sapiens, UniProt P21728); experiment: Binding affinity to dopamine D1 receptor (unknown origin)
D(1A) dopamine receptor, sequence (P21728 whole entry): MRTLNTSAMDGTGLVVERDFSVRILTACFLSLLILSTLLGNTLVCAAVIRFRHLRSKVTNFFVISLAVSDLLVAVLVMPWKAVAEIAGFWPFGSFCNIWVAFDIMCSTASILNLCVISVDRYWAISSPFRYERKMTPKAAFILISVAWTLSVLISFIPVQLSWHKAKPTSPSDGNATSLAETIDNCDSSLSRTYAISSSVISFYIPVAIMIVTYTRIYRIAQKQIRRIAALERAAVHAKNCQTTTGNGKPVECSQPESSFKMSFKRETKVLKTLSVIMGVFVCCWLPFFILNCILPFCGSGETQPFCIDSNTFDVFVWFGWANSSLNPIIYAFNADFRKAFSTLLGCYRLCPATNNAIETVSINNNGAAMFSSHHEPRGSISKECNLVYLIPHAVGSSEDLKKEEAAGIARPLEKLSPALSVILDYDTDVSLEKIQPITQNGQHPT

Adenosine receptor A2a, sequence (P29274 whole entry): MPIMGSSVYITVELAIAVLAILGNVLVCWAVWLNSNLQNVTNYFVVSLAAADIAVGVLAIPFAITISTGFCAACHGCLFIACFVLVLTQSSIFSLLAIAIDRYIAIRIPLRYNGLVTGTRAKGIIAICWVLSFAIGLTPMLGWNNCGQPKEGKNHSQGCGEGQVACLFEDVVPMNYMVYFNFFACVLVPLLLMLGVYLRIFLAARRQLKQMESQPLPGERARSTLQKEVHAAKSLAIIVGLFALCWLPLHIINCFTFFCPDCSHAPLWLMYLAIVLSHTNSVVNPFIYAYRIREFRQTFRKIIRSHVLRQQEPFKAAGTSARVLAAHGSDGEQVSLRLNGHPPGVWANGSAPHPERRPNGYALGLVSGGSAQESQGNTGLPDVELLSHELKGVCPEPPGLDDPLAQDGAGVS
Kappa-type opioid receptor, sequence (P41145 whole entry): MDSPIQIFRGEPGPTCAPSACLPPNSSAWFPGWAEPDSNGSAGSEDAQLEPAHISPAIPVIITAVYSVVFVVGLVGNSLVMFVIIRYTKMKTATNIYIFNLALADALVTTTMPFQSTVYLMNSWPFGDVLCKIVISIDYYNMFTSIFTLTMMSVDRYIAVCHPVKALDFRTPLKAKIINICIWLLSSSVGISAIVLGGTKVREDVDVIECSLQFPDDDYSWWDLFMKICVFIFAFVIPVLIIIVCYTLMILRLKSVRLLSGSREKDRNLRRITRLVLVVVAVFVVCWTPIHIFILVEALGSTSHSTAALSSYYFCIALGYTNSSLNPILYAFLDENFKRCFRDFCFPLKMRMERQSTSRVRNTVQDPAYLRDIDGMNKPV
5-hydroxytryptamine receptor 2B, sequence (P41595 whole entry): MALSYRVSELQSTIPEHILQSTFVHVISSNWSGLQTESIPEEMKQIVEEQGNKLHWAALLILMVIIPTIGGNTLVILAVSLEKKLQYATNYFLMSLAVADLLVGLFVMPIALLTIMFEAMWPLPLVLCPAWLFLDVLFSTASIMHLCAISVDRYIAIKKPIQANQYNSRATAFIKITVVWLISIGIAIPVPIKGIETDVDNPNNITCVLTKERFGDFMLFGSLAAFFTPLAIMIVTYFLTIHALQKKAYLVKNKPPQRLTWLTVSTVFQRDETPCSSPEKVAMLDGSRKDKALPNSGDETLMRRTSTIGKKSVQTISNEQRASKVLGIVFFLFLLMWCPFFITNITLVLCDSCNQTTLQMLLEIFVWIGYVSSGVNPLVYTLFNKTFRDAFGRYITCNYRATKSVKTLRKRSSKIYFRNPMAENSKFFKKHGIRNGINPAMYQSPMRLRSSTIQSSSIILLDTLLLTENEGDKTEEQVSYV

Structure (SMILES): CCOc1ccc(C)nc1C(=O)N1C[C@@H]2C[C@@H]2C[C@H]1CNc1ncc(C)cn1
Kb [3]: 0.8 nM | Kb [4]: 100 nM

Structure (SMILES): CN(Cc1ccc(F)cc1)C(=O)Cn1cc(S(=O)(=O)Cc2ccc(F)cc2)c2ccccc21
IC50 [5]: 5 nM | IC50 [6]: 4360 nM

Structure (SMILES): CN(C)c1ccc(NC(=O)Nc2ccnc3c(F)ccc(F)c23)cc1
Ki [1]: 8.7 nM | Ki [2]: 503 nM

Structure (SMILES): Cc1nc(C(=O)N2CC3(CC3)C[C@H]2CNc2ncc(Cl)cn2)c(-c2ccccc2)s1
Kb [3]: 158 nM | Kb [4]: 158 nM

Structure (SMILES): Cc1nc2ccc(NC(=O)Nc3ccnc4cccnc34)cc2o1
Ki [7]: 1200 nM | Ki [8]: 670 nM

Structure (SMILES): COc1c(F)cccc1C(=O)N1C[C@@H](C)CC[C@H]1CNc1ccc(Br)cn1 (racemic)
Ki [9]: 320 nM | Kb [3]: 1.6 nM | Kb [4]: 126 nM

Structure (SMILES): CN(Cc1ccccc1)C(=O)Cn1nc(S(=O)(=O)Cc2ccccc2)c2ccccc21
IC50 [5]: 14 nM | IC50 [6]: 998 nM

Structure (SMILES): Cc1ccc(NC[C@@H]2C[C@H]3C[C@H]3CN2C(=O)c2nc(C)ccc2OCC2CC2)nc1
Kb [3]: 0.5 nM | Kb [4]: 4 nM

Structure (SMILES): CN(Cc1ccc(F)cc1)C(=O)Cc1nc(S(=O)(=O)Cc2ccccc2)c2ccccn12
IC50 [5]: 194 nM | IC50 [6]: > 10000 nM

Structure (SMILES): Cc1cccc(-c2sc(C)nc2C(=O)N2CCC2CNC(=O)c2c(N)nc3sccn23)c1 (racemic)
IC50 [5]: 5 nM | IC50 [6]: 10 nM

Structure (SMILES): CN(Cc1ccccc1)C(=O)Cn1cc(S(=O)(=O)Cc2ccccc2)c2ccccc21
IC50 [5]: 35 nM | IC50 [6]: 3460 nM

Structure (SMILES): CCOc1ccc(C)nc1C(=O)N1C[C@@H]2C[C@@H]2C[C@H]1CNc1ncc(C(F)(F)F)cn1
Kb [3]: 0.3 nM

Structure (SMILES): Cc1nc(C(=O)N2CCCC[C@H]2CNC(=O)c2cccc3occc23)c(-c2ccc(F)cc2)s1 [SB-649868]
Ki [1]: 0.3 nM

Structure (SMILES): CCCOc1ccc(C)nc1C(=O)N1C[C@@H]2C[C@@H]2C[C@H]1CNc1cnc(C)c(C)n1
Kb [3]: 1 nM | Kb [4]: 1.3 nM

Structure (SMILES): Cc1cc(C)nc(N2CC[C@@H]3CN(C(=O)c4cc(F)ccc4-n4nccn4)[C@H]3C2)n1
Ki [5]: 18 nM | Ki [6]: 1400 nM

Structure (SMILES): O=C(Cn1cc(S(=O)(=O)Cc2ccc(F)cc2)c2ccccc21)NCc1ccc(F)cc1
IC50 [5]: 96 nM | IC50 [6]: 9190 nM

Structure (SMILES): Cc1ccc(-c2ncccc2C)c(C(=O)N2C[C@@H]3C[C@@H]3C[C@H]2CNc2ncc(C(F)(F)F)cn2)n1
Kb [3]: 0.6 nM | Kb [4]: 16 nM

Structure (SMILES): CCCOc1ccc(C)nc1C(=O)N1C[C@@H]2C[C@@H]2C[C@H]1CNc1ncc(C(F)(F)F)cn1
Kb [3]: 0.3 nM | Kb [4]: 63 nM

Structure (SMILES): Cc1cnn(-c2ccc(C)nc2C(=O)N2C[C@@H]3C[C@@H]3C[C@H]2CNc2ncc(C(F)(F)F)cn2)c1
Kb [3]: 0.6 nM | Kb [4]: 0.4 nM

Structure (SMILES): Cc1c(S(=O)(=O)Cc2ccc(F)cc2)c2ccccn2c1CC(=O)N(C)Cc1ccc(F)cc1
Ki [1]: 4360 nM | Ki [2]: 5.7 nM

Structure (SMILES): Cc1ccc(-n2nccn2)c(C(=O)N2C[C@H](COc3ncccc3C)OC[C@H]2C)c1
Ki [6]: 720 nM

Second part, the compound after the results:

Ki [1]: 1640 nM | Ki [2]: 6 nM
Structure (SMILES): CC1(C)OC[C@H](NC(=O)Nc2ccc(Br)cc2Br)[C@H](c2ccccc2)O1

Ki [6]: 2.2 nM
Structure (SMILES): Cc1ccc(-n2nccn2)c(C(=O)N2C[C@H](COc3nccc4ccccc34)OC[C@H]2C)c1

IC50 [5]: 0.8 nM | IC50 [6]: 2380 nM
Structure (SMILES): Cc1c(S(=O)(=O)Cc2ccccc2)c2ccccn2c1CC(=O)N(C)Cc1ccc(F)cc1

IC50 [1]: 6 nM
Structure (SMILES): COc1ccc(C[C@H]2c3cc(OC)c(OC)cc3CCN2[C@@H](C(=O)NC(C)C)c2ccccc2)cc1OC

Ki [2]: 8 nM
Structure (SMILES): CNC(=O)[C@@H](c1ccccc1)N1CCc2cc(OC)c(OC)cc2[C@@H]1CCc1ccc(C(F)(F)F)cc1 [ALMOREXANT]

Ki [1]: 1.1 nM | Ki [2]: 129 nM
Structure (SMILES): [3H]c1cccc([3H])c1-c1nnc(C[C@@H]2CCCN2C(=O)c2nc(C)sc2-c2ccccc2F)o1

Kb [3]: 5 nM | Kb [4]: 79.4 nM
Structure (SMILES): Cc1nc(C(=O)N2CC3(CC3)C[C@H]2CNc2ccc(Cl)cn2)c(-c2ccccc2)s1

Ki [1]: 36 nM | Ki [2]: > 10000 nM
Structure (SMILES): CCN(CC)c1ccc(NC(=O)c2oc3ccccc3c2C)cc1

IC50 [5]: 13 nM | IC50 [6]: 3100 nM
Structure (SMILES): Cc1cccc(-c2sc(C)nc2C(=O)N2CCC2CNC(=O)c2cccc3c2OCCN3C)c1 (racemic)

Kb [3]: 31.6 nM | Kb [4]: 2.5 nM
Structure (SMILES): Cc1cc(C)nc(NC[C@@H]2CC3(CC3)CN2C(=O)c2nc(C)sc2-c2ccccc2)n1

Kd [1]: 3050 nM | Kd [2]: 7 nM
Structure (SMILES): CCn1nc(C)cc1C(=O)NCC[C@H](Cc1ccccc1)N(C)C(=O)c1cc(C)ccc1-n1nccn1

Ki [1]: 1.1 nM | Ki [2]: 129 nM
Structure (SMILES): Cc1nc(C(=O)N2CCC[C@H]2Cc2nnc(-c3ccccc3)o2)c(-c2ccccc2F)s1

Ki [1]: 1 nM
Structure (SMILES): Cc1ccc(-n2nccn2)c(C(=O)N2CCC[C@@H](COc3ccccn3)[C@@H]2C)c1

IC50 [5]: 1 nM | IC50 [6]: 3780 nM
Structure (SMILES): Cc1c(S(=O)(=O)Cc2ccccc2)c2ccccn2c1CC(=O)N(C)Cc1ccccc1

Ki [1]: 0.5 nM
Structure (SMILES): Cc1ccc(-n2nccn2)c(C(=O)N2CCC[C@@H](COc3nccc4ccccc34)[C@@H]2C)c1

Ki [2]: 0.3 nM
Structure (SMILES): Cc1ccc(-c2ncccn2)c(C(=O)N2C[C@H](COc3ccc(F)cn3)CC[C@H]2C)c1 [FILOREXANT]

Ki [10]: 320 nM | Ki [11]: 1780 nM | Ki [1]: 22 nM | Ki [2]: 1400 nM
Structure (SMILES): Cc1cc(NC(=O)Nc2ccc(N(C)C)cc2)c2cc(F)cc(F)c2n1
